Data from publication PMC7304070 (Journal of the American Chemical Society, 2020).

Tests used:
[1] = Circular dichroism helicity; assay type: physicochemical; conditions: for Helicity, Stabilized (S): CD, 10 μM in 1:1 water:acetonitrile, molar ellipticity at 222 nm, stabilized peptide
MDM2-GST = MDM2-GST (Homo sapiens, UniProt Q00987); assay: Bacterial surface display; assay type: binding; conditions: for BSD Kd Ratio (NS/S): non-stabilized / stabilized Kd on bacterial surface
[2] = target: MDM2 truncate (residues 10–118) (Homo sapiens, UniProt Q00987); assay: Bio-layer interferometry; assay type: binding; conditions: non-stabilized / stabilized Kd in solution (fold improvement upon stabilization)
Chain of MDM2 truncate (residues 10–118) (Q00987 10-118): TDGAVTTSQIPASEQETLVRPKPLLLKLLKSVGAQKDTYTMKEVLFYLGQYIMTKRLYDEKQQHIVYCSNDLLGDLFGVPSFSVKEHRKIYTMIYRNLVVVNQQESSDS

Chain of MDM2-GST (Q00987 whole entry, the tested form may be a part): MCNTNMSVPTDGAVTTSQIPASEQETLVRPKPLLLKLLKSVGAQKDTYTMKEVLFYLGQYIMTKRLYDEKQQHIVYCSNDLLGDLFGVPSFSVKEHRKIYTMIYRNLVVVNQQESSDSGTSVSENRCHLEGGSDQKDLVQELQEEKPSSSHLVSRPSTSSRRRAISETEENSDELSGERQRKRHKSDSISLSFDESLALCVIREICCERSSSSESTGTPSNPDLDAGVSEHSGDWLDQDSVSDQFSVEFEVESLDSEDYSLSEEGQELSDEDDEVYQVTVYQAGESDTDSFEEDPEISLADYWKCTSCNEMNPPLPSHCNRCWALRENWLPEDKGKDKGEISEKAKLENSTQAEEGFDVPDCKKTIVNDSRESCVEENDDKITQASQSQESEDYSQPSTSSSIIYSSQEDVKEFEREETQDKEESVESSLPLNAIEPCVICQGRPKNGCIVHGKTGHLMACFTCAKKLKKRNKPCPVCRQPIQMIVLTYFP

Row | Sequence | Helicity, Stabilized (S) [1] [%] | BSD Kd Ratio (NS/S) (MDM2-GST) | BLI Kd Ratio (NS/S) [2] | also measured
1 | ETAXDLWRLLXEN (sidechain bridge or staple) [SPD-M0-E(−2)-F19A] | 50 | – | – | binding as displayed on the bacterial cell surface (MDM2-GST; negative controls, Figure S1): did not exhibit measurable binding
2 | ETFXDLWRLLXEN (sidechain bridge or staple) [SPD-M0-E(−2)] | 53 | – | – | –
3 | GGTFXGYWADLXAF (sidechain bridge or staple) [SPD-M3-G1] | 18 | 1.4 | 4.1 | Helicity Ratio (S/NS) ([1]; stabilized / non-stabilized helicity): 1.1; improvement in affinity over the starting sequence SPD-M0-E(−2) (MDM2-GST; bacterial surface, stabilized, after 3 rounds of sorting, n = 3 independent trials of duplicates): ~5 fold
4 | QTFXDLWRLLXEN (sidechain bridge or staple) [SPD-M0-E(−1)] | 40 | – | – | –
5 | QTFXDLWRLLXQN (sidechain bridge or staple) [SPD-M0-E(0)] | 41 | – | – | –
6 | VLSFXDYWNLLXGS (sidechain bridge or staple) [SPD-M3-V1] | – | 6.6 | 9.4 | –
